# Assay results reported in patent US20050004029A1, “Methods and compositions for treating vascular leak using hepatocyte growth factor” (priority 2001, published 2005).
# Tests used:
# PI-3′ kinase = assay: Akt phosphorylation by western immunoblotting (PI-3′ kinase activity); format: cell-based
# Experimental: (§1) Endothelial cell monolayers grown to confluence in 12-well plates and challenged with HGF were lysed with 100 μl of 2×SDS sample buffer, and cell lysates were transferred into microcentrifuge tubes and boiled for 5 min. After a brief spin, proteins from 10 μl cell lysates were separated on 12% SDS-PAGE and transferred to nitrocellulose (Schleicher & Schuell, Keene, N.H.) (30V, 18 h). After blocking with PBST (PBS with 0.1% Tween 20) containing 5% non-fat milk for 1 hr, nitrocellulose blots were reacted with primary antibodies diluted in PBST containing 5% BSA for 1 hr, washed with PBST (3×10 min), incubated with peroxidase-conjugated secondary antibodies (goat anti-rabbit IgG, 1:10,000 dilution, Sigma; or goat anti-mouse IgG, 1:10,000 dilution, Bio-Rad Labs, Richmond, Calif.) diluted in PBST with 5% non-fat milk for 1 hr and again washed with PBST (3×10 min). Finally, immunoreactive proteins were detected using ECL. The relative intensities of the protein bands were quantified by scanning densitometry.
# To identify key signaling mediators involved in HGF-induced barrier protection, the role of PI-3′-kinase in HGF-stimulated barrier improvement was examined by measuring HGF-dependent phosphorylation of the serine/threonine kinase, Akt, a well-accepted method of defining PI-3′ kinase activity. Cell homogenates were analyzed by western immunoblotting with anti-phospho-Akt[…] antibody. When endothelial monolayers were incubated with HGF (20 ng/ml) for increasing amounts of time (1, 2, 5, 10, 15, 20, 30, 60, or 120 minutes), AKT is rapidly phosphorylated beginning at 2 min with maximal effect plateauing by 5-30 min. When the cells are incubated for 15 minutes with increasing concentrations of HGF (0.5, 1, 2, 5, 10, 20, 50 or 100 ng/ml), activation was […] in response to concentrations as low as 5 ng/ml. […]
# GSK3β = GSK3β Ser9 phosphorylation by western immunoblot; format: cell-based, human; details: after HGF treatment
# Experimental: as §1
# HGF has been reported to increase the phosphorylation status of GSK3β, a multi-functional enzyme involved in glycogen synthesis and protein synthesis regulation activity in mammary epithelial cells (Papkoff, J. and Aikawa, M. (1998) Biochem. Biophys. Res. Commun. 247:851-858). Of potential importance to barrier regulation, GSK3β phosphorylation results in enzymatic inactivation and increases the level of uncomplexed cellular β-catenin (Papkoff, J. (1997) J. Biol. Chem. 272(7):4536-4543). […] Concomitant with HGF-induced TER augmentation, increases in phosphorylation of GSK3β after HGF treatment was detected by increased immunofluorescence and prominent by Western blotting at 2 min, with peak intensity leveling off at 15-30 min, although remaining above basal levels for more than 2 hr. […]
substance,measurement,setting,value
"HGF: heparin-binding glycoprotein, multifunctional cytokine, ligand of c-Met; purchased from R&D Systems",onset of Akt phosphorylation,PI-3′ kinase; HGF 20 ng/ml,2 min
same,time of maximal Akt phosphorylation (plateau),PI-3′ kinase; HGF 20 ng/ml,5 to 30 min
same,lowest concentration giving Akt activation,"PI-3′ kinase; HGF 0.5-100 ng/ml, 15 minutes",5 ng/mL
same,duration of GSK3β phosphorylation above basal levels,GSK3β,more than 2 hr
same,time of peak GSK3β phosphorylation,GSK3β,15 to 30 min
same,time at which GSK3β phosphorylation is prominent,GSK3β; Western blotting,2 min
